From ChEMBL document CHEMBL2396635, “Design, synthesis, and DNA binding characteristics of a group of orthogonally positioned diamino, N-formamido, pyrrole- and imidazole-containing polyamides” (Bioorg Med Chem, 2013)
Each block holds one compound with its values, some of them ahead of it. The source made the active and inactive calls. The calls are words filed in the database; no cut-off is given here.

Assays:
Nucleic Acid [1] = assay: Binding affinity to 5'-AAATTT-3' of hairpin DNA (unknown origin) in cacodylic acid buffer at pH 6.5 assessed as change in melting temperature at 3 uM by thermal denaturation assay; type: nucleic-acid assay
[2] = Binding affinity to 5'-ACGCGT-3' of hairpin DNA (unknown origin) in cacodylic acid buffer at pH 6.5 at 25 degC by SPR analysis
[3] = Binding affinity to 5'-ACTAGT-3' of DNA fragment (unknown origin) in Tris buffer at pH 7 at 1 uM by DNA footprinting
[4] = Binding affinity to 5'-ATGCAT-3' of DNA fragment (unknown origin) in Tris buffer at pH 7 at 1 uM by DNA footprinting
Nucleic Acid [5] = assay: Binding affinity to 5'-ATCGAT-3' of hairpin DNA (unknown origin) in cacodylic acid buffer at pH 6.5 assessed as change in melting temperature at 3 uM by thermal denaturation assay; type: nucleic-acid assay
[6] = Binding affinity to 5'-ACGCGT-3' of DNA fragment (unknown origin) in Tris buffer at pH 7 at 1 uM by DNA footprinting
Nucleic Acid [7] = assay: Binding affinity to 5'-ATGCAT-3' of hairpin DNA (unknown origin) in cacodylic acid buffer at pH 6.5 assessed as change in melting temperature at 3 uM by thermal denaturation assay; type: nucleic-acid assay
[8] = Binding affinity to 5'-ATGCAT-3' DNA (unknown origin) at 80 uM at 25 degC by ITC method
[9] = Binding affinity to 5'-ATGCAT-3' of hairpin DNA (unknown origin) in cacodylic acid buffer at pH 6.5 at 25 degC by SPR analysis
Nucleic Acid [10] = assay: Binding affinity to 5'-ACGCGT-3' of hairpin DNA (unknown origin) in cacodylic acid buffer at pH 6.5 assessed as change in melting temperature at 3 uM by thermal denaturation assay; type: nucleic-acid assay
[11] = Binding affinity to 5'-ATCGAT-3' of hairpin DNA (unknown origin) in cacodylic acid buffer at pH 6.5 at 25 degC by SPR analysis
[12] = Binding affinity to 5'-ATGCAT-3' of hairpin DNA (unknown origin) in 10 mM phosphate buffer at pH 6.2 at 1 mol equivalent of compound by CD titration method
[13] = Binding affinity to 5'-AAATTT-3' of DNA fragment (unknown origin) in Tris buffer at pH 7 at 30 uM by DNA footprinting
[14] = Binding affinity to 5'-AAATTT-3' of DNA fragment (unknown origin) in Tris buffer at pH 7 at 20 uM by DNA footprinting
[15] = Binding affinity to 5'-AAATTT-3' of hairpin DNA (unknown origin) in cacodylic acid buffer at pH 6.5 at 25 degC by SPR analysis
[16] = Binding affinity to 5'-AAATTT-3' of hairpin DNA (unknown origin) in 10 mM phosphate buffer at pH 6.2 at 1 mol equivalent of compound by CD titration method
[17] = Binding affinity to 5'-AAATTT-3' DNA (unknown origin) at 80 uM at 25 degC by ITC method
[18] = Binding affinity to 5'-ATGCAT-3' of 11 bp hairpin DNA oligonucleotide (unknown origin) in cacodylic acid buffer at pH 6.5 at 25 degC by SPR analysis
[19] = Binding affinity to 5'-ATCGAT-3' of 11 bp hairpin DNA oligonucleotide (unknown origin) in cacodylic acid buffer at pH 6.5 at 25 degC by SPR analysis
[20] = Binding affinity to 5'-ACGCGT-3' DNA (unknown origin) at 80 uM at 25 degC by ITC method
[21] = Binding affinity to 5'-ACGCGT-3' of 11 bp hairpin DNA oligonucleotide (unknown origin) in cacodylic acid buffer at pH 6.5 at 25 degC by SPR analysis
[22] = Binding affinity to 5'-ATCGAT-3' DNA (unknown origin) at 80 uM at 25 degC by ITC method
[23] = Binding affinity to 5'-TACGAT-3' of topoisomerase 2alpha promoter (unknown origin) in Tris buffer at pH 7 at 10 uM by DNA footprinting
[24] = Binding affinity to 5'-ATCGAT-3' of hairpin DNA (unknown origin) in 10 mM phosphate buffer at pH 6.2 at 1 mol equivalent of compound by CD titration method
[25] = Selectivity for 5'-TACGAT-3' of topoisomerase 2alpha promoter (unknown origin) over 5'-CTGCTTC-3' of topoisomerase 2alpha promoter (unknown origin)
[26] = Binding affinity to 5'-CTGCTTC-3' of topoisomerase 2alpha promoter (unknown origin) in Tris buffer at pH 7 at 30 uM by DNA footprinting
[27] = Binding affinity to 5'-AAATTT-3' of 11 bp hairpin DNA oligonucleotide (unknown origin) in cacodylic acid buffer at pH 6.5 at 25 degC by SPR analysis
[28] = Binding affinity to 5'-ACGCGT-3' of DNA fragment (unknown origin) in Tris buffer at pH 7 at 0.05 uM by DNA footprinting
[29] = Binding affinity to 5'-ACGCGT-3' of hairpin DNA (unknown origin) in 10 mM phosphate buffer at pH 6.2 at 1 mol equivalent of compound by CD titration method

SMILES: CN(C)CCCNC(=O)c1cc(NC(=O)c2cc(NC(=O)c3nc(NC=O)cn3C)cn2CCCN)cn1C
ΔTm (Nucleic Acid [1]): 0 °C | Ke [2]: 2.3 ×10⁶ /M | Activity [3]: Active | Activity [4]: Active | ΔTm (Nucleic Acid [5]): 7 °C | Activity [6]: Active | ΔTm (Nucleic Acid [7]): 26 °C | Activity [8]: Active | Ke [9]: 1.3 ×10⁸ /M | ΔTm (Nucleic Acid [10]): 0 °C | Ke [11]: 2.7 ×10⁶ /M | Activity [12]: Active

SMILES: CN(C)CCNC(=O)c1nc(NC(=O)c2cc(NC(=O)c3nc(NC=O)cn3C)cn2C)cn1C
ΔTm (Nucleic Acid [1]): 1 °C | Ke [2]: 5.4 ×10⁷ /M | ΔTm (Nucleic Acid [5]): 1 °C | Ke [18]: 1.2 ×10⁷ /M | ΔTm (Nucleic Acid [7]): 9 °C | Ke [19]: 1 ×10⁵ /M | ΔTm (Nucleic Acid [10]): 9 °C | Ke [15]: 5.3 ×10⁴ /M | Activity [20]: Active

SMILES: CN(C)CCCNC(=O)c1cc(NC(=O)c2cc(NC(=O)c3nc(NC=O)cn3C)cn2C)cn1C
ΔTm (Nucleic Acid [5]): 3 °C | Ke [18]: 1.2 ×10⁷ /M | ΔTm (Nucleic Acid [7]): 11 °C | Activity [8]: Active | Ke [21]: 8.8 ×10⁴ /M | Ke [19]: 9.4 ×10⁴ /M | ΔTm (Nucleic Acid [10]): 2 °C

SMILES: CN(C)CCCNC(=O)c1cc(NC(=O)c2nc(NC(=O)c3cc(NC=O)cn3C)cn2C)cn1C
ΔTm (Nucleic Acid [5]): 0 °C | Activity [22]: Active | Activity [23]: Active | ΔTm (Nucleic Acid [10]): 3 °C | Ke [11]: 2 ×10⁵ /M | Selectivity ratio [25]: 3 | Activity [26]: Active

SMILES: CN(C)CCNC(=O)c1nc(NC(=O)c2cc(NC(=O)c3nc(NC=O)cn3C)cn2CCCN)cn1C
ΔTm (Nucleic Acid [1]): 10 °C | Ke [2]: 2.4 ×10⁸ /M | ΔTm (Nucleic Acid [5]): 11 °C | ΔTm (Nucleic Acid [7]): 24 °C | Ke [9]: 3.5 ×10⁷ /M | ΔTm (Nucleic Acid [10]): > 24 °C | Ke [11]: 1.7 ×10⁶ /M | Activity [28]: Active | Activity [29]: Active | Activity [20]: Active

Now from value to compound:

ΔTm (Nucleic Acid [1]): 25 °C | Activity [13]: Active | ΔTm (Nucleic Acid [5]): 10 °C | ΔTm (Nucleic Acid [10]): 0 °C | Activity [14]: Active | Ke [15]: 4.8 ×10⁷ /M | Activity [16]: Active | Activity [17]: Active
SMILES: CN(C)CCCNC(=O)c1cc(NC(=O)c2cc(NC(=O)c3cc(NC=O)cn3C)cn2CCCN)cn1C

ΔTm (Nucleic Acid [1]): 10 °C | ΔTm (Nucleic Acid [5]): 0 °C | Activity [22]: Active | Activity [23]: Active | ΔTm (Nucleic Acid [10]): 0 °C | Ke [11]: < 1 ×10⁵ /M | Activity [24]: Active | Selectivity ratio [25]: 3 | Activity [26]: Active
SMILES: CN(C)CCCNC(=O)c1cc(NC(=O)c2nc(NC(=O)c3cc(NC=O)cn3CCCN)cn2C)cn1C

ΔTm (Nucleic Acid [1]): 9 °C | ΔTm (Nucleic Acid [5]): 1 °C | Activity [14]: Active | Activity [17]: Active | Ke [27]: 3.2 ×10⁶ /M
SMILES: CN(C)CCCNC(=O)c1cc(NC(=O)c2cc(NC(=O)c3cc(NC=O)cn3C)cn2C)cn1C
